From patent US20230140983A1, “PYRIDAZINE DERIVATIVES FOR MODULATING NUCLEIC ACID SPLICING” (REMIX THERAPEUTICS INC., priority 2020, published 2023)
pIC50: −log10 of the molar value. Read-outs that look alike come from different tables or passages of the source.

Columns and labels:
Assay type in all cases: cell-based
HTT [1] = test: Gene panel canonical junction qPCR assay, HTT CJ mRNA; settings: Table 9, CJ mRNA decrease, read-out: HTT IC50 (decrease in CJ mRNA levels)
Description: (§1) To set up 10 uL RT-qPCR reactions, cell lysates were transferred to 384-well qPCR plates containing the master mix according to the table below. The plates were sealed, gently vortexed, and spun down before the run. The volumes were adjusted accordingly in some instances where the reaction was carried in 20 uL. The table below summarizes the components of the RT-qPCR reactions:
(§2) The RT-qPCR reaction was performed using a QuantStudio (ThermoFisher) under the following fast cycling conditions. All samples and standards were analyzed at least in duplicate. In some instances, bulk room temperature (RT) step of 5-10 minutes was completed for all plates before proceeding with qPCR. The table below summarizes the PCR cycle:
(§3) The data analysis was performed by first determining the ΔCt vs the housekeeper gene. This ΔCt was then normalized against the DMSO control (ΔΔCt) and converted to RQ (relative quantification) using the 2^(−ΔΔCt) equation. The RQ were then converted to a percentage response by arbitrarily setting an assay window of 3.5 ΔCt for HTT-CJ and an assay window of 9 ΔCt for HTT-AJ. […] The percentage response was then fitted to the 4 parametric logistic equation to evaluate the concentration dependence of compound treatment. The increase in AJ mRNA is reported as AC50 (compound concentration having 50% response in AJ increase) while the decrease in CJ mRNA levels is reported as IC50 (compound concentration having 50% response in CJ decrease).
(§4) Additional studies were carried out for a larger panel of genes using the protocol provided above. The junction between flanking upstream and downstream exons was used to design canonical junction qPCR assays. At least one of the forward primer, reverse primer or the CY5-labeled 5′ nuclease probe (with 3′ quencher such as ZEN/Iowa Black FQ) was designed to overlap with the exon junction to capture the CJ mRNA transcript. BLAST was used to confirm the specificity of the probeset and parameters such as melting temperature, GC content, amplicon size, and primer dimer formation are considered during their design. Data for the decrease in CJ mRNA levels for three exemplary genes (HTT, SMN2, and Target C) analyzed in this panel are reported as IC50 (compound concentration having 50% response in CJ decrease).

SMN2 = test: Gene panel canonical junction qPCR assay, SMN2 CJ mRNA; settings: Table 9, CJ mRNA decrease, read-out: SMN2 IC50 (decrease in CJ mRNA levels)
Description: as §1, §2, §3, §4

Target C = test: Gene panel canonical junction qPCR assay, Target C CJ mRNA; settings: Table 9, CJ mRNA decrease, read-out: Target C IC50 (decrease in CJ mRNA levels)
Description: as §1, §2, §3, §4

HTT [2] = test: Splicing assay (RT-qPCR on cell lysates) monitoring HTT splice variants: AJ and CJ mRNA; settings: concentration having 50% response
Description: Example 69: Exemplary Splicing Assay for Monitoring Expression Levels of Splice Variants
as §1, §2, §3

[3] = Table 8, decrease in CJ mRNA, read-out: HTT CJ AC50
[4] = Table 8, increase in AJ mRNA, read-out: HTT AJ AC50
[5] = Table 7, decrease in CJ mRNA, read-out: HTT CJ AC50
[6] = Table 7, increase in AJ mRNA, read-out: HTT AJ AC50

Structure (SMILES) | pIC50 (HTT [1]) | pIC50 (SMN2) | pIC50 (Target C) | AC50 (HTT [2]; [3]) [nM] | AC50 (HTT [2]; [4]) [nM] | AC50 (HTT [2]; [5]) [nM] | AC50 (HTT [2]; [6]) [nM]
Cc1[nH]ncc1-c1ccc(-c2ccc(N(C)C3CC(C)(C)NC(C)(C)C3)nn2)c2ncsc12 [Compound 176] | < 5.00 | < 5.00 | < 5.00 | > 10000 | 1000 to 10000 |  | 
CN(c1ccc(-c2ccc(-c3cn[nH]c3)c3ncsc23)nn1)C1CCNCC1 [Compound 222, N-methyl-N-(piperidin-4-yl)-6-[4-(1H-pyrazol-4-yl)-1,3-benzothiazol-7-yl]pyridazin-3-amine] | 5.00 to 6.00 | 6.00 to 7.00 | 5.00 to 6.00 | 1000 to 10000 | 1000 to 10000 |  | 
CCN(c1ccc(-c2ccc(-c3cn[nH]c3)c3ncsc23)nn1)C1CC(C)(C)NC(C)(C)C1 [Compound 225, N-ethyl-6-[4-(1H-pyrazol-4-yl)-1,3-benzothiazol-7-yl]-N-(2,2,6,6-tetramethylpiperidin-4-yl)pyridazin-3-amine] | 5.00 to 6.00 | 6.00 to 7.00 | 5.00 to 6.00 | 1000 to 10000 | 1000 to 10000 |  | 
CCN(c1ccc(-c2ccc(-c3cn[nH]c3)c3ncsc23)nn1)[C@@H]1C[C@H]2CCC[C@@H](C1)N2 [Compound 228] | > 7.00 | > 7.00 | > 7.00 | < 100 | 100 to 1000 |  | 
CC1(C)CC(Oc2ccc(-c3ccc(-c4cn[nH]c4)c4ncsc34)nn2)CC(C)(C)N1 [Compound 181] | < 5.00 | > 7.00 | < 5.00 | > 10000 | > 10000 | > 5000 | > 5000
CN(c1ccc(-c2ccc(-c3cn[nH]c3)c3ncsc23)nn1)[C@@H]1C[C@H]2CCC[C@@H](C1)N2 [Compound 226] | > 7.00 | > 7.00 | > 7.00 | < 100 | < 100 |  | 
CC1(C)CC(Oc2ccc(-c3ccc(-c4cn[nH]c4)c4cn[nH]c34)nn2)CCN1 (centres unmarked) [Compound 220] | 5.00 to 6.00 | 6.00 to 7.00 | < 5.00 | 1000 to 10000 | > 10000 |  | 
CN(c1ccc(-c2ccc(-c3ccc(=O)[nH]c3)c3scnc23)nn1)C1CC(C)(C)NC(C)(C)C1 [Compound 180] | 6.00 to 7.00 | 6.00 to 7.00 | 6.00 to 7.00 | 100 to 1000 | 100 to 1000 |  | 
CN(c1ccc(-c2ccc(-n3cccn3)c3nc[nH]c23)nn1)[C@@H]1C[C@H]2CC[C@@H](C1)N2 [Compound 170] | 5.00 to 6.00 | 6.00 to 7.00 | < 5.00 | 1000 to 10000 | 1000 to 10000 | 500 to 5000 | > 5000
c1n[nH]cc1-c1ccc(-c2ccc(N3CC4(CCCNC4)C3)nn2)c2[nH]ncc12 [Compound 218] | < 5.00 | < 5.00 | < 5.00 | > 10000 | > 10000 |  | 
c1nc2c(-c3cn[nH]c3)ccc(-c3ccc(N4CC5(CCNCC5)C4)nn3)c2s1 [Compound 197] | 5.00 to 6.00 | 5.00 to 6.00 | < 5.00 | 1000 to 10000 | 1000 to 10000 |  | 
c1n[nH]cc1-c1ccc(-c2ccc(N3CC4(CCNCC4)C3)nn2)c2[nH]ncc12 [Compound 229] | 5.00 to 6.00 | 5.00 to 6.00 | 5.00 to 6.00 | 1000 to 10000 | 1000 to 10000 |  | 
CC1(C)CC(Nc2ccc(-c3ccc(-c4cn[nH]c4)c4ncsc34)nn2)CC(C)(C)N1 [Compound 186] | > 7.00 | > 7.00 | 6.00 to 7.00 | < 100 | < 100 | < 500 | < 500
